Results taken from ChEMBL document CHEMBL1240302, “Small-molecule interaction with a five-guanine-tract G-quadruplex structure from the human MYC promoter” (Nat Chem Biol, 2005).
Activity calls are given as the source filed them. The rule behind the calls is not given here.

test system: Nucleic Acid; test: Binding affinity to human c-MYC Pu24I G-quadruplex structure assessed as stabilization of G-quadruplex by NMR spectroscopy; type: nucleic-acid assay

| SMILES | Activity |
| --- | --- |
| CC[n+]1c(-c2ccccc2)c2cc(N)ccc2c2ccc(N)cc21 | Active |
| CN1CCN(c2ccc3[nH]c(-c4ccc5[nH]c(-c6ccc(O)cc6)nc5c4)nc3c2)CC1 | Active |
| COc1cccc2c1C(=O)c1c(O)c3c(c(O)c1C2=O)C[C@@](O)(C(C)=O)C[C@@H]3O[C@H]1C[C@H](N)[C@H](O)[C@H](C)O1 | Active |
| C[n+]1ccc(-c2c3nc(c(-c4cc[n+](C)cc4)c4ccc([nH]4)c(-c4cc[n+](C)cc4)c4ccc([nH]4)c(-c4cc[n+](C)cc4)c4nc2C=C4)C=C3)cc1 | Active |
